In patent US20260109732A1, “LIPID AMINES” (ModernaTX, Inc., priority 2021, published 2026):
Structures can show the parent of a compound that is named as a salt.

How the values were obtained:
[1] = Diameter and PDI from DLS measurements of mRNA nanoparticles with lipid amines; assay type: physicochemical
Experimental: (§1) Lipids are dissolved in ethanol at a concentration of 24 mg/mL and molar ratios of 49.0:11.2:39.3:0.5 (IL1:DSPC:cholesterol:PEG-DMG-2K) and mixed with the acidification buffer (45 mM acetate buffer at pH 4). The lipid solution and acidification buffer are mixed using a multi-inlet vortex mixer at a 3:7 volumetric ratio of lipid:buffer for mixer 1 and mixer 2 and a 1:3 volumetric ratio of lipid:buffer (25% ethanol) for mixer 3. After a 5 second residence time, the resulting nanoparticles are mixed with 55 mM sodium acetate at pH 5.6 at a volumetric ratio of 5:7 of nanoparticle:buffer. See Table 2a for mixing parameters. The resulting dilute nanoparticles are then buffer exchanged and concentrated using tangential flow filtration (TFF) into a final buffer containing 5 mM sodium acetate pH 5.0. Then a 70% sucrose solution in 5 mM acetate buffer at pH 5 is subsequently added.
(§2) The resulting nanoparticles at a lipid concentration of 7.33 mg/mL in 5 mM acetate (pH 5) and 75 g/L sucrose are mixed with mRNA (luciferease or CFTR) at a concentration of 0.625 mg/mL in 42.5 mM sodium acetate pH 5.0, with N:P of 4.93. The nanoparticle solution and nanoparticles are mixed using a multi-inlet vortex mixer at a 3:2 volumetric ratio of nanoparticle:mRNA. Once loaded with mRNA, these intermediate nanoparticles undergo a 300 second residence time prior addition of neutralization buffer containing 120 mM TRIS pH 8.12 at a volumetric ratio of 5:1 of nanoparticle:buffer.
(§3) For HeLa studies evaluating luciferase protein expression, PEG-DMG-2K dissolved in a 20 mM TRIS buffer (pH 7.5) is added to the neutralized intermediate nanoparticle solution at a ratio of 1:6, bringing the solution to the final molar ratios of IL1:DSPC:cholesterol:PEG-DMG-2K of 48.5:11.1:38.9:1.5%. This nanoparticle formulation is then modified with lipid amines. In a typical example, nanoparticle formulation at a concentration of 0.18 mg/mL mRNA and a 0.56 mL volume is modified with lipid amine SA50 (467.2 nmol) prepared in buffer containing 20 mM TRIS, 14.3 mM sodium acetate, 32 g/L sucrose and 140 mM NaCl-pH 7.5 at a volumetric ratio of 1:1 of nanoparticle:buffer.
(§4) For HeLa studies evaluating CFTR protein expression, the intermediate nanoparticle formulation (1 mL, 0.415 mg mRNA) is mixed with a buffer containing 20 mM TRIS (pH 7.5), 0.9 mg/mL PEG-DMG-2K and lipid amine SA50 (647.1 nmol) at a volumetric ratio of 6:1 of nanoparticle:buffer. The resulting nanoparticle suspension undergoes concentration using a centrifugal filtration device (100 kDa molecular weight cut-off) and is diluted in running buffer (20 mM TRIS, 14.3 mM sodium acetate, and 32 g/L sucrose, pH 7.5) with a 300 mM NaCl solution to a final buffer matrix containing 70 mM NaCl.
(§5) Both resulting nanoparticle suspensions are filtered through a 0.8/0.2 μm capsule filter and filled into glass vials at an mRNA strength of about 0.1-1 mg/mLBliophysical data (Diameter and PDI from DLS measurements and Encapsualtion using Ribogreen assay) for both luciferase and CFTR mRNA nanoparticles with lipid amines is shown in Tables 2c and d, respectively.

[2] = Encapsulation of mRNA nanoparticles with lipid amines using Ribogreen assay; assay type: physicochemical
Experimental: as §1, §2, §3, §4, §5

HeLa cells [3] = experiment: Luciferase Protein Expression Assay in HeLa Cells; assay type: cell-based, Human; conditions: LNPs encapsulating Luciferase mRNA, 25 ng per well, N=4 wells; 5 h serum-free then 24 h; ONE-Glo
Experimental: as §3
(§6) Lipid nanoparticle compositions were prepared in a manner analogous to that in example 2. To evaluate LNP cellular uptake and protein expression In Vitro, HeLa cells from ATCC.org (ATCC CCL-2) are used. The cells are cultured in complete Minimum Essential Medium (MVEM) and are plated in 96 well Cell Carrier Ultra plate with PDL coated surface (PerkinElmer) prior to running an experiment.
Cells were transfected with buffer control (PBS) or LNPs encapsulating Luciferase mRNA (25 ng per well; N=4 replicate wells) in serum-free MEM media. LNP transfected cells were incubated for 5 h, followed by media removal and supplementation with complete MEM media. Cells were further incubated in complete MEM media overnight (24 h). Following the 24 hr incubation, luciferase protein expression was measured using the ONE-Glo™ Luciferase Assay (Promega). Cells were lysed using 1× Passive Lysis Buffer (Cat. #E194A) for 10 min in a microplate mixer at room temperature. Luciferase in the supernatant was measured by adding Luciferase Assay Reagent (Cat. #E151A) containing luciferin. Bioluminescence was then immediately measured on a Synergy H1 plate reader (BioTek). The results shown in Table 3a show the Average Relative Light Units (RLU) of each sample tested.

HeLa cells [4] = experiment: CFTR Protein Expression Assay in HeLa Cells; assay type: cell-based, Human; conditions: LNPs encapsulating CFTR mRNA, N=4 wells; 5 h serum-free then 24 h; immunofluorescence vs PBS control
Experimental: as §4, §6
Buffer control (PBS) and LNPs encapsulating cystic fibrosis transmembrane conductance regulator (CFTR) mRNA were dosed with MEM media in the absence of serum (N=4 replicate wells). LNP transfected cells were incubated for 5 h, followed by media removal and supplementation with complete MEM media. Cells were further incubated in complete MEM media overnight (24 h).
Following 24 hr incubation, the cells were fixed with PFA and processed for immunofluorescence (IF) using an anti-CFTR rabbit monoclonal antibody. Briefly, the cells were permeabilized with 0.5% TX-100 for 10 min, blocked with 3% bovine serum albumin (BSA)+PBST for 1 hr at room temperature, and incubated with primary anti-CFTR monoclonal antibody overnight at 4° C. Following primary antibody incubation, the cells were incubated with Alexa 488 conjugated secondary antibody for 30 mi and stained with DAPI and HCS CellMask Blue stain. Between different incubation steps the cells were either washed with PBS or PBST. Cells were imaged using Opera Phoenix spinning disk confocal microscope (PerkinElmer), and CFTR protein expression was detected using the 488 nm channel. The image analysis was performed in Harmony 4.9, with main analysis output being CFTR intensity per cell. The results shown in Table 3b show fold-change in CFTR signal intensity per cell compared to buffer (PBS) control (NA=not available).

[5] = CFTR mRNA nanoparticle with lipid amine
[6] = Luciferase mRNA nanoparticle modified with lipid amine

Row | SMILES | Diameter (nm) [1, 5] | PDI [1, 5] | Diameter (nm) [1, 6] | PDI [1, 6] | % Encapsulation (Ribogreen) [2, 5] | % Encapsulation (Ribogreen) [2, 6] | Average Relative Light Units ± Standard Deviation (HeLa cells [3]) | Average fold-change in CFTR signal intensity per cell compared to buffer control ± standard deviation (HeLa cells [4])
1 | CC(C)CCC[C@@H](C)[C@H]1CC[C@H]2[C@@H]3CC=C4C[C@@H](OC(=O)N(CCCN)CCCCOCCCN)CC[C@]4(C)[C@H]3CC[C@]12C [SA61, (3S,8S,9S,10R,13R,14S,17R)-10,13-Dimethyl-17-((R)-6-methylheptan-2-yl)-2,3,4,7,8,9,10,11,12,13,14,15,16,17-tetradecahydro-1H-cyclopenta[a]phenanthren-3-yl (4-(3-aminopropoxy)butyl)(3-aminopropyl)carbamate dihydrochloride] | 71.3 nm | 0.11 | 77 nm | 0.16 | 99.4% | 99.1% | 14343.1 ± 5298.1 Relative Light Units | 7.2 ± 0.4 fold-change
2 | CC(C)CCC[C@@H](C)[C@H]1CC[C@H]2[C@@H]3CC=C4C[C@@H](OC(=O)C(C)C(=O)N(CCCN)CCCCNCCCN)CC[C@]4(C)[C@H]3CC[C@]12C.Cl.Cl.Cl (stereo partly drawn) [SA62, (3S,8S,9S,10R,13R,14S,17R)-10,13-Dimethyl-17-((R)-6-methylheptan-2-yl)-2,3,4,7,8,9,10,11,12,13,14,15,16,17-tetradecahydro-1H-cyclopenta[a]phenanthren-3-yl 3-((3-aminopropyl)(4-((3-aminopropyl)amino)butyl)amino)-2-methyl-3-oxopropanoate trihydrochloride] | 74.2 nm | 0.10 | 78 nm | 0.20 | 99.6% | 99.0% | 18807.1 ± 6618.4 Relative Light Units | 5.5 ± 1.3 fold-change
3 | CC(C)CCC[C@@H](C)[C@H]1CC[C@H]2[C@@H]3CC=C4C[C@@H](OC(=O)C(=O)N(CCCN)CCCCNCCCN)CC[C@]4(C)[C@H]3CC[C@]12C [SA66, (3S,8S,9S,10R,13R,14S,17R)-10,13-Dimethyl-17-((R)-6-methylheptan-2-yl)-2,3,4,7,8,9,10,11,12,13,14,15,16,17-tetradecahydro-1H-cyclopenta[a]phenanthren-3-yl 2-((3-aminopropyl)(4-((3-aminopropyl)amino)butyl)amino)-2-oxoacetate trihydrochloride] | 75.7 nm | 0.13 | 72 nm | 0.18 | 99.5% | 88.2% | 13951.3 ± 6740.3 Relative Light Units | 2.4 ± 0.1 fold-change
4 | CC[C@H](CC[C@@H](C)[C@H]1CC[C@H]2[C@@H]3CC=C4C[C@@H](OC(=O)N(CCCN)CCCCCCCCN)CC[C@]4(C)[C@H]3CC[C@]12C)C(C)C [SA69, (3S,8S,9S,10R,13R,14S,17R)-17-((2R,5R)-5-Ethyl-6-methylheptan-2-yl)-10,13-dimethyl-2,3,4,7,8,9,10,11,12,13,14,15,16,17-tetradecahydro-1H-cyclopenta[a]phenanthren-3-yl (8-aminooctyl)(3-aminopropyl)carbamate dihydrochloride] | 74.0 nm | 0.13 | 71 nm | 0.16 | 99.9% | 98.9% | 35256.9 ± 8309.9 Relative Light Units | 5.3 ± 0.5 fold-change
5 | C/C(=C/CCC(C)C)[C@H]1CC[C@H]2[C@@H]3CC=C4C[C@@H](OC(=O)N(CCCN)CCCCNCCCN)CC[C@]4(C)[C@H]3CC[C@]12C [SA70, (3S,8S,9S,10R,13R,14S,17R)-10,13-dimethyl-17-((R)-6-methylheptan-2-yl)-2,3,4,7,8,9,10,11,12,13,14,15,16,17-tetradecahydro-1H-cyclopenta[a]phenanthren-3-yl (3-aminopropyl)(4-((3-aminopropyl)amino)butyl)carbamate analog olefin elimination by-product from hydroxycholesterol] | 76.2 nm | 0.16 | 76 nm | 0.21 | 99.8% | 97.9% | 11822.1 ± 4128.6 Relative Light Units | 4.5 ± 0.8 fold-change
6 | CC(C)CCC[C@@H](C)[C@H]1CC[C@H]2[C@@H]3CC=C4C[C@@H](OC(=O)CN(CCCN)CCCCCCCCN)CC[C@]4(C)[C@H]3CC[C@]12C [SA71, (3S,8S,9S,10R,13R,14S,17R)-10,13-Dimethyl-17-((R)-6-methylheptan-2-yl)-2,3,4,7,8,9,10,11,12,13,14,15,16,17-tetradecahydro-1H-cyclopenta[a]phenanthren-3-yl N-(8-aminooctyl)-N-(3-aminopropyl)glycinate trihydrochloride] | 74.3 nm | 0.12 | 73 nm | 0.15 | 99.8% | 99.1% | 32758.9 ± 5897.1 Relative Light Units | 6.0 ± 0.4 fold-change
